From patent US20220117938A1, “COMBINATON THERAPY WITH A DON PRODRUG AND AN IMMUNE CHECKPOINT INHIBITOR” (DRACEN PHARMACEUTICALS, INC., priority 2019, published 2022)

System: LK-2 tumors
Test: Anti-tumor efficacy of Compound 1 in the LK-2 xenograft model (Example 13)
Assay type: in vivo, mice
Description: Female BALB/c nude mice were inoculated subcutaneously in the right flank with LK-2 cells for tumor development. Four days after tumor inoculation, mice with tumor sizes reaching approximately 171 mm^3 (range from 112 mm^3 to 222 mm^3) were selected and assigned into groups using stratified randomization with 8 mice per group based upon their tumor volumes. The treatments were started from the day of randomization (defined as D0), Group 1 was treated with Vehicle control, 10 ml/kg, IP, bid×19; Group 2 was treated with Compound 1, 1.4 mg/kg, SC, 5d ON, 2d OFF×2 cycles, followed Compound 1, 2.8 mg/kg, SC, 5d ON, 2 d OFF×1 cycle; Group 3 was treated with Compound 1, 7 mg/kg, IV, tiw (Mon, Wed, Fri)×3 cycles; and Group 4 was treated with Compound 1, 3.3 mg/kg, IV, tiw (Mon, Wed, Fri)×3 cycles. The tumor sizes were measured two times per week during the treatment. The entire study was terminated on D18 after start of the treatment. All treatments were well-tolerated without any adverse effects or significant body weight loss.

[1] = Group 2, 1.4 mg/kg SC 5 d ON 2 d OFF x2 cycles, then 2.8 mg/kg x1 cycle
[2] = Group 3, 7 mg/kg IV tiw x3 cycles
[3] = Group 4, 3.3 mg/kg IV tiw x3 cycles

CC(=O)N[C@@H](Cc1c[nH]c2ccccc12)C(=O)N[C@@H](CCC(=O)C=[N+]=[N-])C(=O)OC(C)C [Compound 1, Isopropyl (S)-2-((S)-2-acetamido-3-(1H-indol-3-yl)propanamido)-6-diazo-5-oxohexanoate]
RTV at day 11 [1]: 8.13 ± 1.31
T/C [1]: 84.34%
TGI [1]: 19.84%
Tumor Size at day 14 [1]: 1359 ± 207 mm^3
Tumor volume (Group 2, 1.4 mg/kg SC 5 d ON 2 d OFF x2 cycles, then 2.8 mg/kg x1 cycle, day 0): 171 ± 10 mm^3
Tumor volume (Group 2, 1.4 mg/kg SC 5 d ON 2 d OFF x2 cycles, then 2.8 mg/kg x1 cycle, day 2): 207 ± 19 mm^3
Tumor volume (Group 2, 1.4 mg/kg SC 5 d ON 2 d OFF x2 cycles, then 2.8 mg/kg x1 cycle, day 4): 217 ± 24 mm^3
Tumor volume (Group 2, 1.4 mg/kg SC 5 d ON 2 d OFF x2 cycles, then 2.8 mg/kg x1 cycle, day 7): 419 ± 81 mm^3
Tumor volume (Group 2, 1.4 mg/kg SC 5 d ON 2 d OFF x2 cycles, then 2.8 mg/kg x1 cycle, day 10): 780 ± 128 mm^3
Tumor volume (Group 2, 1.4 mg/kg SC 5 d ON 2 d OFF x2 cycles, then 2.8 mg/kg x1 cycle, day 14): 1359 ± 207 mm^3
RTV at day 11 [2]: 6.29 ± 0.75
T/C [2]: 65.30%
TGI [2]: 40.73%
Tumor Size at day 14 [2]: 1050 ± 113 mm^3
Tumor volume (Group 3, 7 mg/kg IV tiw x3 cycles, day 0): 171 ± 11 mm^3
Tumor volume (Group 3, 7 mg/kg IV tiw x3 cycles, day 2): 196 ± 9 mm^3
Tumor volume (Group 3, 7 mg/kg IV tiw x3 cycles, day 4): 213 ± 8 mm^3
Tumor volume (Group 3, 7 mg/kg IV tiw x3 cycles, day 7): 256 ± 13 mm^3
Tumor volume (Group 3, 7 mg/kg IV tiw x3 cycles, day 10): 483 ± 44 mm^3
Tumor volume (Group 3, 7 mg/kg IV tiw x3 cycles, day 14): 1050 ± 113 mm^3
Tumor volume (Group 3, 7 mg/kg IV tiw x3 cycles, day 17): 1565 ± 175 mm^3
RTV at day 11 [3]: 7.66 ± 0.88
T/C [3]: 79.51%
TGI [3]: 24.13%
Tumor Size at day 14 [3]: 1294 ± 172 mm^3
Tumor volume (Group 4, 3.3 mg/kg IV tiw x3 cycles, day 0): 170 ± 10 mm^3
Tumor volume (Group 4, 3.3 mg/kg IV tiw x3 cycles, day 2): 193 ± 6 mm^3
Tumor volume (Group 4, 3.3 mg/kg IV tiw x3 cycles, day 4): 211 ± 6 mm^3
Tumor volume (Group 4, 3.3 mg/kg IV tiw x3 cycles, day 7): 374 ± 47 mm^3
Tumor volume (Group 4, 3.3 mg/kg IV tiw x3 cycles, day 10): 577 ± 68 mm^3
Tumor volume (Group 4, 3.3 mg/kg IV tiw x3 cycles, day 14): 1294 ± 172 mm^3
